Data as given in US11253516B2, “N2,N4-diphenylpyrimidine-2,4-diamine derivative, method for preparing same, and pharmaceutical composition containing same as active ingredient for prevention or treatment of cancer” (Korea Research Institute of Chemical Technology, priority 2017, dated 2022).
Like-named read-outs stand apart in the source and are kept apart here.

Legend:
[1] = target: EGFR del19 (Homo sapiens (Human), UniProt P00533, DEL746-750); assay: HTRF enzyme assay, EGFR del19; format: biochemical; conditions: recombinant enzyme
Protocol: The measurement of an activity on wild-type and EGFR mutation enzyme of the compound of the present invention was experimented by utilizing the HTRF system sold by Cisbio, as follow.
The composition of the assay buffer used in the activity measurement was 50 mM Tris-HCl pH 7.5, 100 mM NaCl, 7.5 mM MgCl2, 3 mM KCl, 0.01% Tween 20, 0.1% BSA, 1 mM DTT. The enzymatic reaction was carried out hereto by using the peptide substrate labeled with ATP of […] concentration and biotin of […] concentration. The analysis of an EGFR activity inhibitory effect of the compound was carried out in accordance with the analysis reaction recipe below.
Component 1: […] of EGFR wild-type or mutation enzyme
Component 2: […] of compound solution
Component 3: […] of peptide labeled with ATP and biotin
The enzymatic reaction was initiated by mixing Component 1 and Component 2 first, and then, adding component 3. After the reaction for 2 hours at 37° C., […] of a measurement solution consisting of streptavidin-XL665 provided by Cisbio and anti-phosphotyrosine antibody labeled with europium was added to the enzymatic reaction solution and reacted for 1 hour at ambient temperature. […] The measurement values measured at the seven concentrations of the compound were analyzed by using the Prism program (version 5.01, Graphpad Software, Inc.), and IC50 value of the compound was calculated, which is an inhibitory ability indicator.

[2] = test system: Ba/F3 EGFR del19/T790M cell line; assay: CellTiter-Glo cell viability, Ba/F3 EGFR del19/T790M; format: cell-based; conditions: read-out: Ba/F3 EGFR del19/T790M IC50
Protocol: The measurement of an activity on wild-type and mutation Ba/F3 EGFR cell line of the compound of the present invention was experimented by utilizing the CellTiter-Glo system sold by Promega, as follow. The CellTiter-Glo assay is a method for measuring the ATP present in cells in cell culture conditions to determine the cell viability.
The analysis of an EGFR inhibitory ability effect of the compound was carried out in accordance with the analysis reaction recipe below.
After the reaction of 72 hours, the plate treated with the compound was allowed to stand for 30 minutes at ambient temperature, and then, was further treated with 100 μl of the reagent, and was shaked for 10 minutes at ambient temperature.

[3] = target: FLT3 (Homo sapiens (Human), UniProt P36888); assay: KINOMEscan binding, FLT3; conditions: for inhibitory ability on FLT 3 kinase in comparison with FLT 1 and FLT 4: selectivity in words
Protocol: (§1) The inhibitory activity on FLT kinase, such as wild-type FLT1, FLT3, FLT4, and FLT3 mutation forms, FLT3(D835H), FLT3(D835V), FLT3(D835Y), FLT3(ITD), FLT3(ITD,D835V), FLT3(ITD,F691L), FLT3(K663Q), FLT3(N841I), FLT3(R834Q) was measured.
(§2) FLT3 kinase inhibition was carried out by KINOMEscan method (DiscoverX Inc.). KINOMEscan method consists of the following processes. T7 bacteriophage labeled with FLT kinase was cultured by the infection to E. coli derived from BL21. After the infection of E. coli in the condition of 0.4 of MOI (multiplicity of infection), it was cultured for 90 to 150 minutes at 32° C. to lyse E. coli. The cell debris was removed by centrifugation and filtration, and the kinase protein present in the supernatant was secured. Additionally, the kinase protein was labeled with DNA for the qPCR measurement. The magnetic beads labeled with streptavidin were treated with the standard compound labeled with biotin and reacted for 30 minutes. The resulting beads were used as affinity beads for the measurement of a kinase activity. The binding reaction was initiated with mixing a kinase protein, the affinity beads bound with a ligand, and the compound. In this case, the used buffer solution was 20% SeaBlock, 0.17×PBS, 0.05% Tween 20, 6 mM DTT. All the reactions were carried out in volume of 20 ul at a 384 well plate. After the reaction for 1 hour at ambient temperature, the beads were washed with the solution consisting of 1×PBS, 0.05 Tween 20. Finally, the kinase bound with the beads was eluted by using 1×PBS, 0.05 Tween 20, 0.5 uM standard compound unlabeled with biotin. The affinity of the compound to be tested was indirectly measured by Quantifying the eluted kinase by […].

[4] = target: FLT3(ITD) (Homo sapiens, UniProt P36888, ITD); assay: KINOMEscan binding, FLT3(ITD)
Protocol: as §1
as §2, with “All the reactions were carried out in volume of 20 ul at a 384 well plate. After the reaction for 1 hour at ambient temperature, the beads were washed with the solution consisting of 1×PBS, 0.05 Tween 20. Finally, the kinase bound with the beads was eluted by using 1×PBS, 0.05 Tween 20, 0.5 uM standard compound unlabeled with biotin.” left out

[5] = target: FLT3(ITD, D835V) (Homo sapiens, UniProt P36888, D835V/ITD); assay: KINOMEscan binding, FLT3(ITD, D835V)
Protocol: as §1
as §2, with “All the reactions were carried out in volume of 20 ul at a 384 well plate. After the reaction for 1 hour at ambient temperature, the beads were washed with the solution consisting of 1×PBS, 0.05 Tween 20. Finally, the kinase bound with the beads was eluted by using 1×PBS, 0.05 Tween 20, 0.5 uM standard compound unlabeled with biotin.” left out

[6] = target: FLT3(N841I) (Homo sapiens (Human), UniProt P36888, N841I); assay: KINOMEscan binding, FLT3(N841I)
Protocol: as §1
as §2, with “All the reactions were carried out in volume of 20 ul at a 384 well plate. After the reaction for 1 hour at ambient temperature, the beads were washed with the solution consisting of 1×PBS, 0.05 Tween 20. Finally, the kinase bound with the beads was eluted by using 1×PBS, 0.05 Tween 20, 0.5 uM standard compound unlabeled with biotin.” left out

[7] = target: FLT3(R834Q) (Homo sapiens (Human), UniProt P36888, R834Q); assay: KINOMEscan binding, FLT3(R834Q)
Protocol: as §1
as §2, with “All the reactions were carried out in volume of 20 ul at a 384 well plate. After the reaction for 1 hour at ambient temperature, the beads were washed with the solution consisting of 1×PBS, 0.05 Tween 20. Finally, the kinase bound with the beads was eluted by using 1×PBS, 0.05 Tween 20, 0.5 uM standard compound unlabeled with biotin.” left out

[8] = target: FLT4 (Homo sapiens (Human), UniProt P35916); assay: KINOMEscan binding, FLT4
Protocol: as §1
as §2, with “All the reactions were carried out in volume of 20 ul at a 384 well plate. After the reaction for 1 hour at ambient temperature, the beads were washed with the solution consisting of 1×PBS, 0.05 Tween 20. Finally, the kinase bound with the beads was eluted by using 1×PBS, 0.05 Tween 20, 0.5 uM standard compound unlabeled with biotin.” left out

[9] = test system: Ba/F3 Del19/T790M/C797S cell line; assay: Relative cell viability alone or in combination with cetuximab; format: cell-based; conditions: for viability at 0.03 µM: Mus musculus; for cell viability decreased than brigatinib in combination with cetuximab: combination with 10 μg cetuximab vs 30 nM brigatinib plus cetuximab
Source text: In order to confirm a cell activity on Ba/F3 Del19/T790M/C797S cell line when administering the compound according to the present invention in combination with a conventional drug, cetuximab to be used in single therapy or combination therapy with anticancer chemotherapy in metastatic colorectal cancer, metastatic squamous epithelium head and neck cancer and the like was used to evaluate the cell activity according to the combination administration.
Specifically, brigatinib was used as a control drug, and each of 30 nM of brigatinib, 30 nM of the compound of Example 10 according to the present invention, and 15 nM of the compound of Example 11 was administered to Ba/F3 Del19/T790M/C797S cell line in combination with 10 μg of cetuximab, which is a monoclonal antibody.

[10] = BaF3, 30 nM Example 10 or 15 nM Example 11 alone vs 10 μg cetuximab alone, read-out: lower cell viability when administered alone than cetuximab
[11] = BaF3, 30 nM Example 10 or 15 nM Example 11 plus 10 μg cetuximab vs alone, read-out: cell viability decreased when administered in combination with cetuximab than when administered alone

Sequence of FLT4 (P35916 25-1363): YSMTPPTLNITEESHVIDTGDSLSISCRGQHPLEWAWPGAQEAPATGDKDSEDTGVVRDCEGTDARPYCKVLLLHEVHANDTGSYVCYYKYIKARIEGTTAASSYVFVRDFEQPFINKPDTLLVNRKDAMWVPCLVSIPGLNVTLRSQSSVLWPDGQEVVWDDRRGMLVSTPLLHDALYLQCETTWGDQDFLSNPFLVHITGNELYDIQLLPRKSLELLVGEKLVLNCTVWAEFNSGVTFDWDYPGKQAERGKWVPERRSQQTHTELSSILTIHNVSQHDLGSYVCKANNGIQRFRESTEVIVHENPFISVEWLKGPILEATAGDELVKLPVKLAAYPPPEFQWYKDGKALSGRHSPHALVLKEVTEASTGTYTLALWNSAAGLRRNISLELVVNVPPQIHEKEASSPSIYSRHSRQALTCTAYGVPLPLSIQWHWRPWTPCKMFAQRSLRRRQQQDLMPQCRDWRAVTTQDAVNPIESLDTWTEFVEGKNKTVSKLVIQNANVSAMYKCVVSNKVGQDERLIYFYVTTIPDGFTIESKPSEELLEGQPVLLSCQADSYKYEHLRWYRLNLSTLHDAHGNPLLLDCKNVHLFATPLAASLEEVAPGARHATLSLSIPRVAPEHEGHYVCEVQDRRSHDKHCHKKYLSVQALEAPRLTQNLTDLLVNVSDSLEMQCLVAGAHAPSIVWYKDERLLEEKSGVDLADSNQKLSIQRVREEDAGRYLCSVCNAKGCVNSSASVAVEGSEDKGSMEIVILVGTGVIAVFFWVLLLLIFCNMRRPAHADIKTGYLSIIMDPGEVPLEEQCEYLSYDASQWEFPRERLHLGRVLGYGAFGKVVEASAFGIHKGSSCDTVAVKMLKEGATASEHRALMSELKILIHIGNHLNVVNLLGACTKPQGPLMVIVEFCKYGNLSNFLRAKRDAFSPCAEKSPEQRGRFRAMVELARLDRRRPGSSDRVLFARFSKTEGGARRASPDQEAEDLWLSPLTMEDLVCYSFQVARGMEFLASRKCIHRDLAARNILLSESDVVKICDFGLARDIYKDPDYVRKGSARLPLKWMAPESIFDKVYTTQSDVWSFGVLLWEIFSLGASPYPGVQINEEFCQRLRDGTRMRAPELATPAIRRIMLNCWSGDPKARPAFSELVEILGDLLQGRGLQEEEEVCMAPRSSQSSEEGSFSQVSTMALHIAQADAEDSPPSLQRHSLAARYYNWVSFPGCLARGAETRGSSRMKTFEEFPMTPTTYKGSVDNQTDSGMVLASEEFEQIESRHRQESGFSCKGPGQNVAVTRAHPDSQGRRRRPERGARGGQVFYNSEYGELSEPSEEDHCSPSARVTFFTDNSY
Sequence of EGFR del19 (P00533 other isoform, or with tags, fused parts or gaps del 1-668/del 746-750 limits assumed): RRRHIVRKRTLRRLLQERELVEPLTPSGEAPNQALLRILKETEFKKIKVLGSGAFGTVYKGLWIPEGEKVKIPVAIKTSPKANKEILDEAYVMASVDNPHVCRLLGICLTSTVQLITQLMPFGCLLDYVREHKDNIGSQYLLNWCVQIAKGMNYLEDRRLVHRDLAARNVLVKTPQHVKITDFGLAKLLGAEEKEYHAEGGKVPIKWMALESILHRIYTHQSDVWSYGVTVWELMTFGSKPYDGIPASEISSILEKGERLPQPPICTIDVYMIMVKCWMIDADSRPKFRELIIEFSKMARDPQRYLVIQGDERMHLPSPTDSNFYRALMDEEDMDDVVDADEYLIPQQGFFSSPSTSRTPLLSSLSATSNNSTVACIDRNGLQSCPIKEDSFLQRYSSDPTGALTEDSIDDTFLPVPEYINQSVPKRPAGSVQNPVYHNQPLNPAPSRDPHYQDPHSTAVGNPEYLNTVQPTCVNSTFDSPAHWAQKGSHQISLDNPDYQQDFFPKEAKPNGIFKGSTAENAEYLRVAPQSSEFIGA

## COc1cc(N2CCC(N3CCN(C)CC3)CC2)ccc1Nc1ncc(Cl)c(Nc2ccccc2NS(C)(=O)=O)n1 [Example 10, N-(2-((5-chloro-2-((2-methoxy-4-(4-(4-methylpiperazin-1-yl)piperidin-1-yl)phenyl)amino)pyrimidin-4-yl)amino)phenyl)methanesulfonamide]
[1]
  IC50: 0.7 nM
[2]; 72 h
  IC50: 99 nM
[3]
  Kd: 3.7 nM
  inhibitory ability on FLT 3 kinase in comparison with FLT 1 and FLT 4: selectively superior inhibitory ability
[4]
  Kd: 18 nM
[5]
  Kd: 0.32 nM
[6]
  Kd: 6.5 nM
[7]
  Kd: 33 nM
[8]
  Kd: 200 nM
[9]; [10]
  viability at 0.03 µM: ≥ 30%
[9]; [11]
  viability at 0.03 µM: ≥ 50%
[9]
  cell viability decreased than brigatinib in combination with cetuximab: at least 20%

## COc1cc(N2CCC(N(C)C)CC2)ccc1Nc1ncc(Cl)c(Nc2ccccc2NS(C)(=O)=O)n1 [Example 11, N-(2-((5-chloro-2-((4-(4-(dimethylamino)piperidin-1-yl)-2-methoxyphenyl)amino)pyrimidin-4-yl)amino)phenyl)methanesulfonamide]
[1]
  IC50: 7.8 nM
[2]; CellTiter-Glo, 72 hours
  IC50: 31 nM
[3]
  Kd: 1.2 nM
  inhibitory ability on FLT 3 kinase in comparison with FLT 1 and FLT 4: selectively superior inhibitory ability
[4]
  Kd: 4.2 nM
[5]
  Kd: 0.16 nM
[6]
  Kd: 3.8 nM
[7]
  Kd: 19 nM
[8]
  Kd: 81 nM
[9]; [10]
  viability at 0.03 µM: ≥ 30%
[9]; [11]
  viability at 0.03 µM: ≥ 50%
[9]
  cell viability decreased than brigatinib in combination with cetuximab: at least 20%
